{
  "source": "patent US9370517B2",
  "about": "“Substituted pyrazolopyrimidines as Akt kinase inhibitors” (Bayer Intellectual Property GmbH, priority 2012, dated 2016)",
  "key": {"[1]": {"test_system": "MCF-7 breast tumour cell line", "assay": "Tumor cell proliferation assay (CellTiter-Glo), MCF-7", "type": "cell-based", "settings": "Homo sapiens, MCF7, 72 h drug exposure; for inhibition at 1.67 µM: read-out: MCF-7 median inhibition at 1.67 μM (%)", "protocol": "(§1) Biological Assay 4.0: Tumor Cell Proliferation Assays\n(§2) Compounds were tested in a cell-based assay that measures the capacity of the compounds to inhibit tumour cell proliferation following a 72 h drug exposure. Cell viability is determined using CellTiter-Glow® (CTG, Promega, cat# G7571/2/3). The CellTiter-Glo® Luminescent Cell Viability Assay is a homogeneous method to determine the number of viable cells in culture. Detection is based on using the luciferase reaction to measure the amount of ATP from viable cells. The amount of ATP in cells correlates with cell viability. Within minutes after a loss of membrane integrity, cells lose the ability to synthesize ATP, and endogenous ATPases destroy any remaining ATP; thus the levels of ATP fall precipitously.\n(§3) Cells were plated at 3000-5000 cells/well (depending on the cell lines) in 90 μL growth medium on MTPs (Corning; #3603, black plate, clear flat bottom). For each cell line assayed, cells were plated onto a separate plate for determination of […] at t=0 hour and t=72 hour time points. Following overnight incubation at 37° C., chemiluminescence values for the t=0 samples were determined after adding 10 μl medium and 100 μl CTG solution according to manufacture protocol. Plates for the t=72 hour time points were treated with compounds diluted into growth medium at ten times final concentration added in 10 μL to the cell culture plate. Cells were then incubated for 72 hours at 37° C. Chemiluminescence values for the t=72 hour samples were determined. […] Experiments were controlled using a reference compound as standard.\n(§4) Preferred compounds of the present invention show in this assay an inhibition of cell growth of cell lines such as the KPL-4 breast cancer cell line and the MCF-7 breast tumour cell line ([…], hormone dependent) with a median IC50 of <10 μM, more preferably, median IC50≦1 μM."}, "[2]": {"target": "T1, His-tagged human recombinant kinase full-length Akt2 (Homo sapiens, UniProt P31751)", "T1 construct": "His-tagged human recombinant kinase full-length Akt2; His; purchased Invitrogen PV 3975; host or cells: insect cells", "assay": "Akt2 kinase assay (TR-FRET)", "type": "biochemical", "settings": "10 μM ATP, 60 min at 22° C.; read-out: Akt2, median IC50", "source_text": "Biological Assay 2.0: Akt2 Kinase Assay\nAkt2 inhibitory activity of compounds of the present invention was quantified employing the Akt2 TR-FRET assay as described in the following paragraphs.\n(§5) His-tagged human recombinant kinase full-length Akt2 expressed in insect cells and activated by PDK1 was purchased from Invitrogen (part number PV 3975). As substrate for the kinase reaction the biotinylated peptide biotin-Ahx-KKLNRTLSFAEPG (SEQ ID NO: 1) (C-terminus in amide form) was used which can be purchased e.g. from the company Biosynthan GmbH (Berlin-Buch, Germany).\n(§6) For the assay 50 nl of a 100fold concentrated solution of the test compound in DMSO was pipetted into a black low volume 384well microtiter plate (Greiner Bio-One, Frickenhausen, Germany), 2 μl of a solution of Akt2 in assay buffer [50 mM TRIS/HCl pH 7.5, 5 mM MgCl2, 1 mM dithiothreitol, 0.02% (v/v) Triton X-100 (Sigma)] were added and the mixture was incubated for 15 min at 22° C. to allow prebinding of the test compounds to the enzyme before the start of the kinase reaction. Then the kinase reaction was started by the addition of 3 μl of a solution of adenosine-tri-phosphate (ATP, 16.7 μM=>final conc. in the 5 μl assay volume is 10 μM) and substrate (1.67 μM=>final conc. in the 5 μl assay volume is 1 μM) in assay buffer and the resulting mixture was incubated for a reaction time of 60 min at 22° C. […]\n(§7) The resulting mixture was incubated 1 h at 22° C. to allow the binding of the biotinylated phosphorylated peptide to the streptavidine-XL665 and the antibodies. Subsequently the amount of phosphorylated substrate was evaluated by measurement of the resonance energy transfer from the anti-mouse-IgG-Eu-Chelate to the streptavidine-XL665. Therefore, the fluorescence emissions at 620 nm and 665 nm after excitation at 350 nm was measured in a TR-FRET reader, e.g. a Rubystar (BMG Labtechnologies, Offenburg, Germany) or a Viewlux (Perkin-Elmer). […]"}, "[3]": {"target": "T2, His-tagged human recombinant kinase full-length Akt1 (Homo sapiens, UniProt P31749)", "T2 construct": "His-tagged human recombinant kinase full-length Akt1; His; purchased Invitrogen PV 3599; host or cells: insect cells", "assay": "Akt1 kinase assay (TR-FRET)", "type": "biochemical", "settings": "10 μM ATP, 60 min at 22° C.; read-out: Akt1, median IC50", "source_text": "Biological Assay 1.0: Akt1 Kinase Assay\nAkt1 inhibitory activity of compounds of the present invention was quantified employing the Akt1 TR-FRET assay as described in the following paragraphs.\nas §5, with “full-length Akt1” for “full-length Akt2”, “cells” for “cells and activated by PDK1”, “purchased form” for “purchased from”, “PV 3599).” for “PV 3975).”\nas §6, with “Akt1” for “Akt2”, “(Sigma)]were” for “(Sigma)] were”\nas §7, with “HTRF” for “TR-FRET”"}, "[4]": {"test_system": "KPL-4 breast cancer cell line", "assay": "Tumor cell proliferation assay (CellTiter-Glo), KPL-4", "type": "cell-based", "settings": "Homo sapiens, KPL4, 72 h drug exposure; for inhibition at 1.67 µM: read-out: KPL-4 median inhibition at 1.67 μM (%)", "protocol": "as §1, §2, §3, §4"}, "p-4E-BP1-T70": {"test_system": "p-4E-BP1-T70", "assay": "Cellular p-4E-BP1-T70 assay in KPL-4 cells", "type": "cell-based", "settings": "Homo sapiens, KPL4, 2 hours treatment, read-out: P4EBP1-T70 median IC50", "protocol": "(§8) The molecular mechanism of action was investigated in a set of experiments to assess the inhibition of the PI3K-AKT-mTOR pathway in responsive cell lines such as KPL-4 breast tumour cell line (PIK3CA^H1047R, HER2^O/E and hormone independent). The phospho-substrates of PI3K-AKT-mTOR axis were used as the readouts to reflect pathway inhibition. Cells were seeded at 60-80% confluency per well in 96-well cell culture plates. After overnight incubation at 37° C. 5% CO2, cells were treated with compounds and vehicle at 37° C. for 2 hours. Thereafter, cells were lysed in 150 μl lysis buffer and the levels of phospho-AKT at 1308 and S473 and p-4E-BP1 at T70 sites were determined with the corresponding AlphaScreen® SureFire® assay kits (Perkin Elmer: 4E-BPI Assay Kit Cat # TRG4E2S10K; Akt 1/2/3 p-Ser 473 #TGRA4S500 and Akt 1/2/3 p-Thr 308 #TGRA3S500 as well as IgG detection Kit #6760617M) as described in the manuals. All measurements where at least done in duplicates and confirmed by independent repetition. Alternatively pAKT-S473 was measured using the “Akt Duplex” of the MULTI-SPOT® Assay System (Fa. Meso Scale Discovery, Cat# N41100B-1) following manufacturers instructions. Each assay used 20 μg of protein extract and measured total AKT and p-AKT content simultaneously in one well. All measurements where at least done in duplicates and confirmed by independent repetition. Values for P-AKT are expressed as percentage of P-AKT level compared to total-AKT content of the extracts."}, "p-AKT1/2/3-S473": {"test_system": "p-AKT1/2/3-S473", "assay": "Cellular p-AKT1/2/3-S473 assay in KPL-4 cells", "type": "cell-based", "settings": "Homo sapiens, KPL4, read-out: pAKT-S473 median IC50, 2 hours treatment, read-out: pAKT-S743 median IC50", "protocol": "as §8"}},
  "data": [
    {"smiles": "NC1(c2ccc(-c3nn4c(C(F)(F)F)cc(C(F)(F)F)nc4c3-c3ccccc3)cc2)CCC1", "note": "[Example 3, 1-{4-[3-Phenyl-5,7-bis(trifluoromethyl)pyrazolo[1,5-a]pyrimidin-2-yl]phenyl}cyclobutanamine]", "values": [
      {"measurement": "inhibition at 1.67 µM", "setting": "[1]", "value": 25.6, "unit": "%"},
      {"measurement": "IC50", "setting": "[1]", "value": 2, "unit": "µM"},
      {"measurement": "IC50", "setting": "[2]", "value": 0.86, "unit": "µM"},
      {"measurement": "IC50", "setting": "[3]", "value": 0.32, "unit": "µM"},
      {"measurement": "inhibition at 1.67 µM", "setting": "[4]", "value": 6.6, "unit": "%"},
      {"measurement": "IC50", "setting": "[4]", "value": 2.4, "unit": "µM"},
      {"measurement": "IC50", "setting": "p-4E-BP1-T70", "value": 3.3, "unit": "µM"},
      {"measurement": "IC50", "setting": "p-AKT1/2/3-S473", "value": 1.8, "unit": "µM"}
    ]},
    {"smiles": "CCc1cc(CC)n2nc(-c3ccc(C4(N)CCC4)cc3)c(-c3ccccc3)c2n1", "note": "[Example 2, 1-[4-(5,7-Diethyl-3-phenylpyrazolo[1,5-a]pyrimidin-2-yl)phenyl]-cyclobutanamine]", "values": [
      {"measurement": "inhibition at 1.67 µM", "setting": "[1]", "value": 24.5, "unit": "%"},
      {"measurement": "IC50", "setting": "[1]", "value": 2, "unit": "µM"},
      {"measurement": "IC50", "setting": "[2]", "value": 0.41, "unit": "µM"},
      {"measurement": "IC50", "setting": "[3]", "value": 0.41, "unit": "µM"},
      {"measurement": "inhibition at 1.67 µM", "setting": "[4]", "value": 7.1, "unit": "%"},
      {"measurement": "IC50", "setting": "[4]", "value": 2.2, "unit": "µM"},
      {"measurement": "IC50", "setting": "p-4E-BP1-T70", "value": 3.7, "unit": "µM"},
      {"measurement": "IC50", "setting": "p-AKT1/2/3-S473", "value": 1.7, "unit": "µM"}
    ]},
    {"smiles": "Cc1cc(C)n2nc(-c3ccc(C4(N)CCC4)cc3)c(-c3ccccc3)c2n1", "note": "[Example 1, 1-[4-(5,7-Dimethyl-3-phenylpyrazolo[1,5-a]pyrimidin-2-yl)-phenyl]cyclobutanamine]", "values": [
      {"measurement": "inhibition at 1.67 µM", "setting": "[1]", "value": 47.4, "unit": "%"},
      {"measurement": "IC50", "setting": "[1]", "value": 1.8, "unit": "µM"},
      {"measurement": "IC50", "setting": "[2]", "value": 0.46, "unit": "µM"},
      {"measurement": "IC50", "setting": "[3]", "value": 0.066, "unit": "µM"},
      {"measurement": "inhibition at 1.67 µM", "setting": "[4]", "value": 29.8, "unit": "%"},
      {"measurement": "IC50", "setting": "[4]", "value": 1.9, "unit": "µM"},
      {"measurement": "IC50", "setting": "p-4E-BP1-T70", "value": 1.8, "unit": "µM"},
      {"measurement": "IC50", "setting": "p-AKT1/2/3-S473", "value": 0.13, "unit": "µM"}
    ]}
  ]
}
